In US20050261221A1, “Compositions and methods for enhanced delivery of compounds via transfection complexes” (priority 2004, published 2005):
Where “and” joins values, the source holds several entries; their conditions need not be identical. Equal entries are not always repeated. Entries after “also recorded” stand apart in the source; their conditions may differ.

Columns and labels:
[1] = test system: nerve growth factor (NGF) mRNA; conditions: reported [39]; cited from earlier work
[2] = test system: vascular smooth muscle cells (VSMCs); assay: Transfection of VSMCs with cationic phospholipid (EDOPC)-DNA complexes, β-galactosidase microplate fluorometric assay; assay type: cell-based, Wistar rats; conditions: for Effect on transfection: 0.001-0.5 μM cytochalasin B for 3 h, then DNA-lipid complexes 3 h
Protocol: Primary vascular smooth muscle cells were obtained by removal of the thoracoabdominal aortas of Wistar rats, which were then stripped of endothelium and adventitia. Medial VSMCs were maintained in Dubecco's Modified Eagle's Medium (DMEM), 20% fetal bovine serum (FBS), 200 units/ml penicillin, 200 μg/ml streptomycin (all Gibco, Gaitherburg, Md.) at 37° C. with 5% CO2. At confluence, the cells were passaged using 0.25 mg/ml Trypsin/EDTA (Clonetics, Walkersville, Md.) and were used at passage 3-10 for these experiments.
The cells were seeded in 96-well plates at 24 h before transfection at densities to give about 80% confluence at the time of transfection. Normally, EDOPC was suspended in D-PBS at 1 mg/ml to form liposomes. Liposomes and plasmid DNA were diluted in serum-free cell culture medium to 60 μg/ml for lipid and to 20 μg/ml for DNA, and liposomes were pipetted into an equal volume of plasmid DNA solution at a 3:1 weight ratio and mixed gently. The resultant DNA-lipid complexes were incubated at room temperature for 15 min and then added to the cells that were either in medium lacking serum or medium containing 20% fetal bovine serum (FBS). At 3 h after addition of DNA-lipid complexes, except as stated otherwise, the cells were washed with PBS and fresh medium containing 20% FBS was added. Generally, the cells were incubated with free drugs in 20% FBS DMEM for the indicated duration, and then, unless otherwise described, the cells were washed with PBS and incubated with DNA-lipid complexes. For experiments involving co-treatment with taxol and colchicine, the cells were first incubated with taxol for 30 min and then colchicine was added to the medium. […] Subsequent steps were same as for the normal lipoplexes.
Cells were assayed for β-galactosidase activity 24 h after transfection with a microplate fluorometric assay, modified by inclusion of a heating step (50° C., 45 min) to inactivate endogenous enzyme activity. Following aspiration of the medium from each well, the cells were washed once with PBS and then lysed by addition of 100 μl lysis buffer (0.03% Triton X-100 in 100 mM HEPES, pH 7.8, containing 1 mM MgSO4, 10 mM KCl). The plates were placed at 50° C. for 45 min and then allowed to cool to room temperature. 10 μl 100 μM FDG (fluorescein di-β-D-galactopyranoside) was added into each well. Fluorescence was measured with a microplate fluorimeter (Model 7620, Cambridge Technology Inc.) after incubation at 37° C. for 3 h. Fluorescence intensity is proportional to β-galactosidase expression; 2000 fluorescence units corresponded approximately to 0.1 milliunit of β-galactosidase. The expression of VSMCs transfected with normal lipoplexes in absence of serum and any pretreatment was ˜0.1 milliunit per well.

[3] = cited from earlier work
[4] = 100 μM TLCK in fresh 20% FBS after 3 h lipoplex treatment

COC(=O)Nc1nc2ccc(C(=O)c3cccs3)cc2[nH]1 [Nocodazole, nocodazole]
Effect on the level of NGF mRNA [1]: increase
Fold increase of transfection means ± S.D. ([2]; optimal conditions: 50 μM free drug, 3 h pretreatment, 20% FBS): 14 ± 2.0 fold
Fold increase of transfection means ± S.D. ([2]; optimal conditions: 50 μM free drug, 3 h pretreatment, 20% FBS, listed as nocodazole): 14 fold
Fold increase of transfection means ± S.D. ([2]; optimal conditions: 50 μM free drug, 3 h pretreatment, No serum): 31 ± 5.0 fold
Fold increase of transfection means ± S.D. ([2]; optimal conditions: 50 μM free drug, 3 h pretreatment, No serum, listed as nocodazole): 31 fold

S=C(S)N1CCCC1 [PDTC, pyrrolidinedithiocarbamate]
inhibition at 10 µM ([2]; Rattus norvegicus, VSMC, read-out: Reduction of transfection with VB-lipoplexes (inhibition of vinblastine stimulation), 10 μM PDTC in fresh 20% FBS after 3 h lipoplex treatment): 85%
Transfection stimulation by VB-lipoplexes ([2]; after treatment with 10 μM PDTC): 5 ×

Cc1ccc(S(=O)(=O)N[C@@H](CCCCN)C(=O)CCl)cc1 [TLCK, Nα-p-tosyl-L-lysine chloromethyl ketone]
Decrease of transfection of VB-lipoplexes (inhibition of vinblastine stimulation) [2, 4]: 66%
Decrease of transfection of normal lipoplexes [2, 4]: 50%

CC[C@]1(O)C[C@H]2CN(CCc3c([nH]c4ccccc34)[C@@](C(=O)OC)(c3cc4c(cc3OC)N(C=O)[C@H]3[C@@](O)(C(=O)OC)[C@H](OC(C)=O)[C@]5(CC)C=CCN6CC[C@]43[C@@H]65)C2)C1 [Vincristine, vincristine]
Fold increase of transfection means ± S.D. ([2]; optimal conditions: 1/50 (w/w) VC/lipid incorporated in lipid, 20% FBS during 3 h incubation with complexes): 39 ± 6.9 fold
Fold increase of transfection means ± S.D. ([2]; optimal conditions: 1/50 (w/w) VC/lipid incorporated in lipid, 20% FBS during 3 h incubation with complexes, listed as vincristine): 39 fold
Fold increase of transfection means ± S.D. ([2]; optimal conditions: 1/50 (w/w) VC/lipid incorporated in lipid, No serum during 3 h incubation with complexes): 25 ± 5.7 fold
Fold increase of transfection means ± S.D. ([2]; optimal conditions: 1/50 (w/w) VC/lipid incorporated in lipid, No serum during 3 h incubation with complexes, listed as vincristine): 25 fold

COc1cc2c(c(OC)c1OC)-c1ccc(OC)c(=O)cc1[C@@H](NC(C)=O)CC2 [colchicine, Colchicine]
Effect on the level of NGF mRNA [1]: increase
Effect on transfection when added to cells simultaneously with lipoplexes ([2]; 0.05 μg/ml colchicine, simultaneous with lipoplexes, absence of serum): increased marginally
Effect on expression when added to cells simultaneously with lipoplexes ([2]; free colchicine added simultaneously with lipoplexes): not noticeably stimulated; also recorded: no stimulation
Fold increase of transfection (β-galactosidase expression) ([2]; pretreatment with 8 μg/ml free colchicine 3 h, 20% FBS): ~23 fold and 24 fold
Fold increase of transfection (β-galactosidase expression) ([2]; pretreatment with 8.0 μg/ml free colchicine 3 h, absence of serum): ~23 fold

C=C1[C@@H](C)[C@H]2[C@H](Cc3ccccc3)NC(=O)[C@]23OC(=O)/C=C/[C@H](O)CCC[C@@H](C)C/C=C/[C@H]3[C@@H]1O [cytochalasin B]
Effect on the level of NGF mRNA [1]: does not increase
Effect on transfection [2]: No effect
Effect on transfection ([2]; listed as Cytochalasin B): no effect

CC[C@@]1([C@@H]2O[C@@H]([C@H]3O[C@@](O)(CO)[C@H](C)C[C@@H]3C)C[C@@H]2C)CC[C@H]([C@]2(C)CC[C@]3(C[C@H](O)[C@@H](C)[C@@H]([C@@H](C)[C@@H](OC)[C@H](C)C(=O)O)O3)O2)O1 [monensin]
Fold effect on transfection relative to no pretreatment ([2]; 1 μM monensin for 15 min, then normal DNA-lipid complexes (FIG. 6)): 9.5 fold

COc1cc([C@@H]2c3cc4c(cc3[C@H](O)[C@H]3COC(=O)[C@H]23)OCO4)cc(OC)c1OC [podophyllotoxin]
Fold increase of transfection means ± S.D. ([2]; optimal conditions: 20 μM free drug, 3 h pretreatment, 20% FBS): 14 fold and 14 ± 5.8 fold
Fold increase of transfection means ± S.D. ([2]; optimal conditions: 20 μM free drug, 3 h pretreatment, No serum): 26 fold and 26 ± 4.5 fold

CC(=O)O[C@H]1C(=O)[C@@]2(C)[C@H]([C@H](OC(=O)c3ccccc3)[C@]3(O)C[C@H](OC(=O)[C@H](O)[C@@H](NC(=O)c4ccccc4)c4ccccc4)C(C)=C1C3(C)C)[C@]1(OC(C)=O)CO[C@@H]1C[C@@H]2O [taxol]
Effect on colchicine's increase of NGF mRNA [1]: suppresses
Effect on the stimulation of transfection by colchicine ([2]; 4 μM taxol 30 min, then 0.8 μg/ml colchicine added): blocked
Effect on transfection efficiency, taxol alone ([2]; pretreatment with 4 μM taxol 3 h): no effect
Effect on the stimulation of VB-lipoplexes ([2]; pretreatment with taxol): blocked

CC[C@]1(O)C[C@@H]2CN(CCc3c([nH]c4ccccc34)[C@@](C(=O)OC)(c3cc4c(cc3OC)N(C)[C@H]3[C@@](O)(C(=O)OC)[C@H](OC(C)=O)[C@]5(CC)C=CCN6CC[C@]43[C@@H]65)C2)C1 [vinblastine]
Effect on the level of NGF mRNA [1]: increase
Solubility in chloroform ([3]; chloroform): soluble
Solubility in water ([3]; water): essentially insoluble
Stimulation of transfection of SMGA-β-Gal plasmid (smooth muscle γ-actin gene promoter) ([2]; CMV-IEP-β-Gal replaced with SMGA-β-Gal, preliminary result): not stimulated
Maximal stimulation of transgene expression ([2]; vinblastine incorporated into the lipoplexes): ~30 fold
